# Earlier results, collected in US10441617B2, “Breeding, production, processing and use of medical cannabis” (priority 2013, dated 2019).
# Where two headings read alike, the source gives them in different places.
# Experiments:
# 5-HT1A receptor = molecular target: T1, 5-HT1A receptor (Homo sapiens, UniProt P08908)
# T1 sequence (P08908 1-422): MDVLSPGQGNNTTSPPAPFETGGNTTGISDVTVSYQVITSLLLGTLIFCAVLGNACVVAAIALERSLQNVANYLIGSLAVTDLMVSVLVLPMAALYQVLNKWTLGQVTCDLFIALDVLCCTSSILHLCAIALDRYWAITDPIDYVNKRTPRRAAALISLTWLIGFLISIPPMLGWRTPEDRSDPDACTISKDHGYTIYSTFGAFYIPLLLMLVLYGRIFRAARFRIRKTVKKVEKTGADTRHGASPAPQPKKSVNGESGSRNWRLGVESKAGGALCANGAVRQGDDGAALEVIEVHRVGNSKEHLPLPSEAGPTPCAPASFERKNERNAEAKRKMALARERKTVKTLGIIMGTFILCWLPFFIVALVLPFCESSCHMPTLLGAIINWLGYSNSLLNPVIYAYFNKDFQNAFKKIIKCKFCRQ
# CB2 receptor = CB2 receptor (Homo sapiens, UniProt P34972)
# [1] = CBD 1-10 mg/kg IP over 21 days with equivalent doses of delta-9-THC
# GPR55 = GPR55 (Homo sapiens, UniProt Q9Y2T6)
# [2] = tested on: Mu and Delta opioid receptor sites
# [3] = tested on: aggressive human breast cancer cells; details: in vitro
# cannabinoid receptor CB1 = cannabinoid receptor CB1 (Homo sapiens, UniProt P21554)
# Chain of cannabinoid receptor CB1 (P21554 whole entry): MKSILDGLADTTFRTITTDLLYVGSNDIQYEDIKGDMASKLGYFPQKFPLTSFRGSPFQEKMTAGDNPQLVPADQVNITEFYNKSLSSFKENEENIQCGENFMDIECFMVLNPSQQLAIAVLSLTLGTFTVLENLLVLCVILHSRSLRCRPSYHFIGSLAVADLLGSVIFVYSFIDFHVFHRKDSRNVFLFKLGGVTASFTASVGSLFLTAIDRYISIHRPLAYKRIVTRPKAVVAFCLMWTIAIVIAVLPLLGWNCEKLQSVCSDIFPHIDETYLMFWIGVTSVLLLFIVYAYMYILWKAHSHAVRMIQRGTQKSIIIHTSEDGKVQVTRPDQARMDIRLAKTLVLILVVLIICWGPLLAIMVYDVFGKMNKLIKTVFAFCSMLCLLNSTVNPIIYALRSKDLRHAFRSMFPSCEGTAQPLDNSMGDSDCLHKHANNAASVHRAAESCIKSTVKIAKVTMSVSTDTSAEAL
# Chain of CB2 receptor (P34972 whole entry): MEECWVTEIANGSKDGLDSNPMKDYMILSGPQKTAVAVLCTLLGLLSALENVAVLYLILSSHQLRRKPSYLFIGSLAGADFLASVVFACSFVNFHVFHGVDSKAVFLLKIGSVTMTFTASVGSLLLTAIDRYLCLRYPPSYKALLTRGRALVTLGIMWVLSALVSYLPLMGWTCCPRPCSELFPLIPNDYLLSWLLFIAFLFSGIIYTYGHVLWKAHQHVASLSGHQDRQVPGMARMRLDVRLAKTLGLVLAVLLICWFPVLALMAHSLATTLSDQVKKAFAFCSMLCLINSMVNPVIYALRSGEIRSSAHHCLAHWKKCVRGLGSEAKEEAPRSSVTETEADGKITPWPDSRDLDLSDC
# Chain of GPR55 (Q9Y2T6 whole entry, species assumed): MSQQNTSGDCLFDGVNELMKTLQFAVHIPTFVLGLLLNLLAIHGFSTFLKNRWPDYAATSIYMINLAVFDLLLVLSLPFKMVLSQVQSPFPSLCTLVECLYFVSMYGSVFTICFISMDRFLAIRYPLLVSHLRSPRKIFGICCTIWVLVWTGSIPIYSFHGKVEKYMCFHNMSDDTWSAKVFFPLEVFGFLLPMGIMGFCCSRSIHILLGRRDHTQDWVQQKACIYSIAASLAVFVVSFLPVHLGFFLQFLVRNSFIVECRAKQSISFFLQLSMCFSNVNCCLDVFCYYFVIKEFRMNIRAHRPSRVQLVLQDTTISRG
SMILES,Activity at 5-HT1A receptor (5-HT1A receptor),Activity at CB2 receptor (CB2 receptor),Activity at CB1 receptor (cannabinoid receptor CB1),other results
"C=C(C)[C@@H]1CCC(C)=C[C@H]1c1c(O)cc(CCCCC)cc1O [CBD, Cannabidiol]",5-HT1A receptor agonist,no affinity,no affinity,Effect of CBD on the effects of delta-9-THC (ratio of CBD/delta-9-THC 1.8): enhanced the effects of delta-9-THC; Effect of CBD on the effects of delta-9-THC (ratio of CBD/delta-9-THC around 8.1): antagonistic effects; Behavioral effects of delta-9-THC [1]: augmented the anxiogenic and locomotor suppressant effects and social interaction deficits; Blood and brain levels of delta-9-THC [1]: increased blood and brain levels; Activity at GPR55 (GPR55): antagonist; Activity at Mu and Delta opioid receptor sites [2]: allosteric modulator; Growth of aggressive human breast cancer cells [3]: reduces growth
"CCCCCc1cc(O)c(C/C=C(\C)CCC=C(C)C)c(O)c1 [CBG, Cannabigerol]",moderate affinity 5-HT1A receptor antagonist,binds to the CB2 receptor,low affinity CB1 receptor antagonist,Activity at α2-adrenergic receptor (α2-adrenergic receptor): high affinity α2-adrenergic receptor agonist
"CCCCCc1cc(O)c2c(c1)OC(C)(C)c1ccc(C)cc1-2 [CBN, Cannabinol]",–,weak agonist,weak agonist,–
"CCCCCc1cc(O)c2c(c1)OC(C)(C)[C@@H]1CCC(C)=CC21 (stereo partly drawn) [THC, delta-9-tetrahydrocannabinol]",–,partial agonist activity,–,–
"CCCc1cc(O)c2c(c1)OC(C)(C)[C@@H]1CCC(C)=C[C@@H]21 [THCV, Tetrahydrocannabivarin]",–,–,CB1 receptor antagonist,–
